{"source": "patent US9611256B2", "about": "“Alkyne-, azide- and triazole-containing flavonoids as modulators for multidrug resistance in cancers” (The Hong Kong Polytechnic University, priority 2012, dated 2017)", "key": {"[1]": {"assay": "Cytotoxicity assay (MTS) towards L929 normal fibroblasts", "conditions": "mouse, L929 fibroblasts"}, "MCF7": {"tested_on": "MCF7", "assay": "Cell proliferation assay without modulator, MCF7", "format": "cell-based", "conditions": "Homo sapiens, read-out: IC50 of anticancer drug, wild type MCF7"}, "MCF7-MX100": {"tested_on": "MCF7-MX100", "assay": "Cell proliferation assay without modulator, MCF7-MX100", "format": "cell-based, human"}, "[2]": {"tested_on": "HEK293/pcDNA3.1 cell line", "assay": "Cell proliferation assay without modulator, HEK293/pcDNA3.1", "format": "cell-based", "conditions": "Homo sapiens, read-out: IC50 of anticancer drug, wild type HEK293/pcDNA3.1"}, "HEK293/R2": {"tested_on": "HEK293/R2", "assay": "Cell proliferation assay without modulator, HEK293/R2", "format": "cell-based", "conditions": "Homo sapiens, read-out: IC50 of anticancer drug, HEK293/R2"}, "L929 cells": {"tested_on": "L929 cells", "assay": "Cytotoxicity assay (MTS) towards L929 normal fibroblasts", "conditions": "read-out: Cytotoxicity (IC50, μM) L929; L929 mouse fibroblasts"}, "BCRP": {"molecular_target": "T1, BCRP (Homo sapiens, UniProt Q9UNQ0)", "T1 sequence (Q9UNQ0 1-655)": "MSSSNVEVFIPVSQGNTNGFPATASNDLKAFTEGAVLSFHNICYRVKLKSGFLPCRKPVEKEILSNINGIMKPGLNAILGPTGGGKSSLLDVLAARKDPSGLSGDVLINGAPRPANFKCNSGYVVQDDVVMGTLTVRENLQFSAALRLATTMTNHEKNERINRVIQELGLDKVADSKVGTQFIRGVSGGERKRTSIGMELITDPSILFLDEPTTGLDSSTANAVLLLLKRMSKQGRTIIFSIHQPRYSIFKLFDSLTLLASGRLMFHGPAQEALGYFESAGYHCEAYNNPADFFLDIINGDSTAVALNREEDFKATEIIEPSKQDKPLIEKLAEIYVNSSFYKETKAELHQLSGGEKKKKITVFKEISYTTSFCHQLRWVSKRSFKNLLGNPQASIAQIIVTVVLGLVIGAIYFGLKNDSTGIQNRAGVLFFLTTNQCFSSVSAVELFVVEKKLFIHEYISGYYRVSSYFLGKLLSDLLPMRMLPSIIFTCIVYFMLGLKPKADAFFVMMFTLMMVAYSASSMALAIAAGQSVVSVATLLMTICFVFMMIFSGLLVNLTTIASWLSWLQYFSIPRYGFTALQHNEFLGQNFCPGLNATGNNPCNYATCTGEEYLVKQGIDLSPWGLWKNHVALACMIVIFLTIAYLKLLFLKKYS", "assay": "Reversal of BCRP-mediated topotecan resistance in HEK293/R2 cells (cell proliferation assay)", "conditions": "triazole dimers, anti vs syn; cell line not given (Table 1)"}, "LCC6MDR": {"tested_on": "LCC6MDR", "assay": "Cell proliferation assay without modulator, LCC6MDR", "format": "cell-based, human"}, "LCC6 cells": {"tested_on": "LCC6 cells", "assay": "Cell proliferation assay without modulator, LCC6", "format": "cell-based", "conditions": "Homo sapiens, LCC-6, read-out: IC50 of anticancer drug, parental LCC6 cells"}, "2008/MRP1": {"tested_on": "2008/MRP1", "assay": "Cell proliferation assay, 2008/MRP1"}, "2008/P cells": {"tested_on": "2008/P cells", "assay": "Cell proliferation assay, 2008/P", "format": "cell-based", "conditions": "Homo sapiens; without modulator; read-out: IC50 of anticancer drug, parental 2008/P cells"}, "[3]": {"tested_on": "P-gp, MRP1 and BCRP transporters", "assay": "Selectivity for ABC transporters, determined from % of reversion (Tables 1 and 2)", "format": "cell-based, human", "conditions": "determined from % of reversion in Table 1 (>80% strongly, 79-50% moderately selective)", "how_it_was_run": "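Selectivity assigned from % reversion of resistance mediated by P-gp, MRP1 and BCRP. Over 80% reversion counts as strongly selective, 79-50% as moderately selective. Compounds are classed as mono-, dual- or multi-selective.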"}, "MRP1": {"molecular_target": "MRP1 (Homo sapiens, UniProt P33527)", "sequence (P33527 whole entry)": "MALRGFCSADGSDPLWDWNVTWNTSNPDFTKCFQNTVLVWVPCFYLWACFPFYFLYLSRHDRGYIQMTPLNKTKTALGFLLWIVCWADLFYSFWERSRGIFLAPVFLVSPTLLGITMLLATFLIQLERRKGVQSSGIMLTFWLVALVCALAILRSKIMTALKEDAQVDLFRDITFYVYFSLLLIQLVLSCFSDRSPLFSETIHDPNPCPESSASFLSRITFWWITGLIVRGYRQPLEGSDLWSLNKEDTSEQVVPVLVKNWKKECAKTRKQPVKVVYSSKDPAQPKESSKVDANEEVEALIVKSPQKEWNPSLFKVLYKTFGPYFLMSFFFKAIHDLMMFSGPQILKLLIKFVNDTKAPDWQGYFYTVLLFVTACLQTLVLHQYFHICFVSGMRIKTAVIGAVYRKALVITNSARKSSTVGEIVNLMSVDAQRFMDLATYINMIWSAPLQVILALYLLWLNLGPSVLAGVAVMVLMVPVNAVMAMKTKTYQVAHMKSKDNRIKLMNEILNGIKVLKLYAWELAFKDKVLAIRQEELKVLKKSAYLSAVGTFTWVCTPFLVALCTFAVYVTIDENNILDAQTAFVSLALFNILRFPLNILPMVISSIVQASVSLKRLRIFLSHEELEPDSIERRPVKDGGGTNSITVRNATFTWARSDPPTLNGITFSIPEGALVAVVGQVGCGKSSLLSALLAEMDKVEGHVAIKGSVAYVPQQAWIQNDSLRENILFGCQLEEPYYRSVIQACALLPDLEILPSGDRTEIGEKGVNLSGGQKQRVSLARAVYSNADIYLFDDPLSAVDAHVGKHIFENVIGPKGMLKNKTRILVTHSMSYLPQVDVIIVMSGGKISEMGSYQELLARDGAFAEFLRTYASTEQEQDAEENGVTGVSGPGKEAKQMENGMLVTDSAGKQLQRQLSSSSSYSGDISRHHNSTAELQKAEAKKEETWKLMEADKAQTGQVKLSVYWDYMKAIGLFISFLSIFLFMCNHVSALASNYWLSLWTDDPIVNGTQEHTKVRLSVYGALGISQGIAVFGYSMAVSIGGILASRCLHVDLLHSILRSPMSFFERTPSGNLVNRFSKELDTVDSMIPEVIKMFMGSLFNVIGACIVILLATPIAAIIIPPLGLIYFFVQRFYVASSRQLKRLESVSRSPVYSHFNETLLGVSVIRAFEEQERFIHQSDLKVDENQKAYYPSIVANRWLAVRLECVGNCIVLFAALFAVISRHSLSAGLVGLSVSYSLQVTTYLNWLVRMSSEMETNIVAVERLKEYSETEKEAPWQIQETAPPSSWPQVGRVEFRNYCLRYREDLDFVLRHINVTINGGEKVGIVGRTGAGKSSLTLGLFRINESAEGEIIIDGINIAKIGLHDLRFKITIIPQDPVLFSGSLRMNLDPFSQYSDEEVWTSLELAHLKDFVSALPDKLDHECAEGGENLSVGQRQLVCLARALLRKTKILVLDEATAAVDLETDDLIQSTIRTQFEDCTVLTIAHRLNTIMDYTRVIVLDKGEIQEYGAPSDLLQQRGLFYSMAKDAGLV", "assay": "Reversal of MRP1-mediated DOX resistance in 2008/MRP1 cells (cell proliferation assay)", "conditions": "syn vs anti triazole regioisomer"}}, "note": "Values joined by “and” are separate entries in the source; they are usually repeats but may differ in a detail not shown here. Equal values may be shown once. Read-outs that look alike come from different tables or passages of the source."}
{"smiles": "C/C=C/C[C@@H](C)C(=O)[C@H]1C(=O)N[C@@H](C(C)C)C(=O)N(C)CC(=O)N(C)[C@@H](CC(C)C)C(=O)N[C@@H](C(C)C)C(=O)N(C)[C@@H](CC(C)C)C(=O)N[C@@H](C)C(=O)N[C@H](C)C(=O)N(C)[C@@H](CC(C)C)C(=O)N(C)[C@@H](CC(C)C)C(=O)N(C)[C@@H](C(C)C)C(=O)N1C", "note": "[PSC833]", "values": [{"measurement": "IC50 at 5 days", "setting": "[1]", "result": "> 100", "unit": "µM"}]}
{"smiles": "CC[C@@]1(O)C(=O)OCc2c1cc1n(c2=O)Cc2cc3c(CN(C)C)c(O)ccc3nc2-1", "note": "[topotecan]", "values": [{"measurement": "IC50", "setting": "MCF7", "result": "320 ± 70", "unit": "nM"}, {"measurement": "fold more resistance of MCF7-MX100 than wild type MCF7", "setting": "MCF7-MX100", "result": "about 104.4 fold"}, {"measurement": "IC50", "setting": "MCF7-MX100; Homo sapiens, MCF7/MX100, read-out: IC50 of anticancer drug, MCF7-MX100", "result": "33.4 ± 2.1", "unit": "µM"}, {"measurement": "IC50", "setting": "[2]", "result": "15.8 ± 1.5", "unit": "nM"}, {"measurement": "IC50", "setting": "HEK293/R2", "result": "508 ± 31.1", "unit": "nM"}]}
{"smiles": "COc1ccc2c3c([nH]c2c1)[C@H](CC(C)C)N1C(=O)[C@H](CCC(=O)OC(C)(C)C)NC(=O)[C@@H]1C3", "note": "[Ko143]", "values": [{"measurement": "IC50", "setting": "L929 cells", "result": "29 µM and 29.2 µM"}]}
{"smiles": "Cc1ccc2oc(-c3ccc(OCCCCc4cnnn4CCOCCOc4ccc(-c5cc(=O)c6ccccc6o5)cc4)cc3)cc(=O)c2c1", "note": "[syn-Ac5Az1, 6-Methyl-2-(4-(4-(1-(2-(2-(4-(4-oxo-4H-chromen-2-yl)phenoxy)ethoxy)ethyl)-1H-1,2,3-triazol-5-yl)butoxy)phenyl)-4H-chromen-4-one]", "values": [{"measurement": "Relative fold (RF), BCRP-modulating activity", "setting": "BCRP", "result": 11.6}]}
{"smiles": "CC(=O)O[C@H]1C(=O)[C@@]2(C)[C@H]([C@H](OC(=O)c3ccccc3)[C@]3(O)C[C@H](OC(=O)[C@H](O)[C@@H](NC(=O)c4ccccc4)c4ccccc4)C(C)=C1C3(C)C)[C@]1(OC(C)=O)CO[C@@H]1C[C@@H]2O", "note": "[paclitaxel]", "values": [{"measurement": "fold greater resistance of LCC6MDR than parental LCC6 cells", "setting": "LCC6MDR", "result": "about 99.2 fold"}, {"measurement": "IC50", "setting": "LCC6MDR; Homo sapiens, LCC6MDR, read-out: IC50 of anticancer drug, LCC6MDR", "result": "159 ± 6.1", "unit": "nM"}, {"measurement": "IC50", "setting": "LCC6 cells", "result": "1.6 ± 0.3", "unit": "nM"}]}
{"smiles": "COc1cccc2c1C(=O)c1c(O)c3c(c(O)c1C2=O)C[C@@](O)(C(=O)CO)C[C@@H]3O[C@H]1C[C@H](N)[C@H](O)[C@H](C)O1", "note": "[DOX]", "values": [{"measurement": "IC50", "setting": "2008/MRP1; Homo sapiens, 2008/MRP1, read-out: IC50 of anticancer drug, 2008/MRP1, without modulator", "result": "420 ± 17.4", "unit": "nM"}, {"measurement": "IC50", "setting": "2008/MRP1; read-out: IC50 of anticancer drug, 2008/MRP1, without modulator", "result": 413, "unit": "nM"}, {"measurement": "fold more resistance of 2008/MRP1 than parental 2008/P", "setting": "2008/MRP1; without modulator", "result": "about 8.4 fold"}, {"measurement": "IC50", "setting": "2008/P cells", "result": "50.1 ± 3.9", "unit": "nM"}]}
{"smiles": "Cc1ccc2oc(-c3ccc(OCCCCc4cn(CCOCCOCCOc5ccc(-c6cc(=O)c7ccccc7o6)cc5)nn4)cc3)cc(=O)c2c1", "note": "[Ac5Az2, 6-Methyl-2-(4-(4-(1-(2-(2-(2-(4-(4-oxo-4H-chromen-2-yl)phenoxy)ethoxy)ethoxy)ethyl)-1H-1,2,3-triazol-4-yl)butoxy)phenyl)-4H-chromen-4-one]", "values": [{"measurement": "Relative fold (RF), BCRP-modulating activity", "setting": "BCRP", "result": 13.5}, {"measurement": "Selectivity for ABC transporters (P-gp, MRP1, BCRP)", "setting": "[3]", "result": "mono-MRP1 selectivity"}]}
{"smiles": "Cc1ccc2oc(-c3ccc(OCCCCc4cnnn4CCOCCOCCOc4ccc(-c5cc(=O)c6ccccc6o5)cc4)cc3)cc(=O)c2c1", "note": "[syn-Ac5Az2, 6-Methyl-2-(4-(4-(1-(2-(2-(2-(4-(4-oxo-4H-chromen-2-yl)phenoxy)ethoxy)ethoxy)ethyl)-1H-1,2,3-triazol-5-yl)butoxy)phenyl)-4H-chromen-4-one]", "values": [{"measurement": "MRP1 inhibitory activity of syn-isomer compared with anti-isomer", "setting": "MRP1", "result": "poorer MRP1 inhibitory activity than the anti-isomer Ac5Az2"}, {"measurement": "Relative fold (RF), BCRP-modulating activity", "setting": "BCRP", "result": 9.3}]}
